Here are results for one compound from US12697411B2, “In-situ film-forming composition” (priority 2021, dated 2026).

The series in a line: Stability of the disinfectant (LAE) in contact with the polyamide lacquer, LC-MS of the film. The class given is physicochemical. The following applies: Spray 1 (composition of Example 1) in polyamide-lacquered container, 3 months at 50° C.; LAE measured in film. As for the experimental part: Besides, the stability of the disinfectant (LAE) present in the composition of Example 1 of the present invention in contact with the polyamide lacquer of the container was measured. Full containers loaded with Spray 1 of the present invention were controlled at 50° C. for 3 months, at 40° C. form 4 to 9 months, and at 30° C. from 6 to 18 months. After that time, the composition was applied to a surface to form the adherent film, in which the amount of LAE was calculated (mg of LAE/g of film).
The method for calculating the amount of LAE consists of a liquid chromatography-mass spectrometry (LC-MS) analysis of the tested sample previously sprayed into a container (glass flask) and dried into a rotary evaporator. The exact and constant weight of the residue is determined. This residue is dissolved in Acetonitrile and doped with a known volume solution of a solution f the internal pattern (Dodine, commercially available) in a known concentration. Then it is stirred and then, pure water at pH 3-4 (acidified with HCl) is added still flushing, this allows precipitating the polymer. The supernatant is filtered and punctured by LC-MS.
• Detector: ACQ-QDa mass Detector • Column: Kromasil 100-5-C18 150×4.0 mm. (5 μm, 100 Å) • System design: Mobil phase entrance-Column-PDA entrance-QDa entrance-Waste Exit
• Fluxe: 1.00 mL/min. […]

Consider `CCCCCCCCCCCC(=O)N[C@@H](CCCN=C(N)N)C(=O)OCC.Cl` [LAE, Ethyl lauroyl arginate hydrochloride salt], for which the “reduction of the amount of disinfectant (LAE)” value is reported as “about 11%”.
